One experiment deals with HeLa. Nature of the experiment: Ratio of GI50 for methyl methane sulphonate to drug in human HeLa B cells. In kind it is functional.
Experiment [1] has as its target Poly [ADP-ribose] polymerase 1 (Homo sapiens, UniProt P09874). As to the kind of experiment: Inhibition of PARP1.

The structures appear in SMILES notation.

Chain of Poly [ADP-ribose] polymerase 1 (P09874 whole entry): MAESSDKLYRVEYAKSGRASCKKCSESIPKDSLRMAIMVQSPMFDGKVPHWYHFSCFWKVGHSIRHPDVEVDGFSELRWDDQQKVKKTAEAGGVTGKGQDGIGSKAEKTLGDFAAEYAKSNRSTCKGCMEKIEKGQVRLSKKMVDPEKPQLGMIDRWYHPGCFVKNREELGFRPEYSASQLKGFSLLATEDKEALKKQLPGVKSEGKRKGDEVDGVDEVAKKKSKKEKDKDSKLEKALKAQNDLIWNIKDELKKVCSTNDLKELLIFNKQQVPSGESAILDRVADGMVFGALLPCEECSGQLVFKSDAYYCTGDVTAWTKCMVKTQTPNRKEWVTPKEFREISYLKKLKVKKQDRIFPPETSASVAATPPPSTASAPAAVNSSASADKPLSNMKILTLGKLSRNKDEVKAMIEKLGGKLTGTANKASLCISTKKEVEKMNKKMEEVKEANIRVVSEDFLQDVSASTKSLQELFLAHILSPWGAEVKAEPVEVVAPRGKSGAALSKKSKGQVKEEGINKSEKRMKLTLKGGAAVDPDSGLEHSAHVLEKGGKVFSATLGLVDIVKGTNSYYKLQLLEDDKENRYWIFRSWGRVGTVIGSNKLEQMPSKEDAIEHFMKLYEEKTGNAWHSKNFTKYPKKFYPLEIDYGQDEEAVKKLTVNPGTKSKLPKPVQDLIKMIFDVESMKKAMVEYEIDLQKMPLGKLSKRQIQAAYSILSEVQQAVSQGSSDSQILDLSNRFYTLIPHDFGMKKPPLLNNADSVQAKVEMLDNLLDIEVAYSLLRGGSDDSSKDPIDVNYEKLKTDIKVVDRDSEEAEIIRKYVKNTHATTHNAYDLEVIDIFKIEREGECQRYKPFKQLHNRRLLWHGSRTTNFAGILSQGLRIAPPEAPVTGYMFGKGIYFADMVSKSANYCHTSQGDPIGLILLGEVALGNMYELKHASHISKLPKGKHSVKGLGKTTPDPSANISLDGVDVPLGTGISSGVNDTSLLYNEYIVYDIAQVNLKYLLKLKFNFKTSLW

In the case of `O=C(c1cccc(Cc2n[nH]c(=O)c3ccccc23)c1)N1CCNCC1`, in the experiment on HeLa, the PF50 is listed as 2.7. Besides, the IC50 – broadly, the point on the concentration scale where inhibition reaches its midpoint – in experiment [1] was 2 nM. In the same order, the values of `NC(=O)c1ccccc1OCc1ccc(F)c(C(=O)N2CCNCC2)c1` are 1.4 and 61 nM. For the molecule `NC(=O)c1cc(F)ccc1OCc1ccc(F)c(C(=O)N2CCNCC2)c1`, the PF50 with HeLa worked out at 1.6. Also, in experiment [1], the half-inhibitory concentration (IC50) came to 29 nM. In the same order, the values of `NC(=O)c1cc(F)c(F)cc1OCc1ccc(F)c(C(=O)N2CCNCC2)c1` are 1.08 and 240 nM.

As for `CC(Oc1ccccc1)C(=O)N1CCN(C(=O)c2cc(CCOc3ccccc3C(N)=O)ccc2F)CC1` (stereo unspecified), the PF50 with HeLa turned out to be 1.5. In experiment [1], `NC(=O)c1c(F)ccc(F)c1OCc1ccc(F)c(C(=O)N2CCNCC2)c1` gave an IC50 of over 10000 nM.

`CC(Oc1ccccc1)C(=O)N1CCN(C(=O)c2cc(COc3ccc(F)cc3C(N)=O)ccc2F)CC1` (stereo unspecified): in the experiment with HeLa, the PF50 stood at 1.12. Besides, the IC50 in experiment [1] came out at 14 nM. For `NC(=O)c1cc(F)cc(F)c1OCc1ccc(F)c(C(=O)N2CCNCC2)c1`, the PF50 in the experiment with HeLa is 0.9. The same molecule came in with an IC50 in experiment [1] of 1500 nM. For `NC(=O)c1ccccc1OCc1ccc(F)c(C(=O)N2CCN(C(=O)C3CCCC3)CC2)c1` the same measures were 1.96 and 24 nM. With `CC(Oc1ccccc1)C(=O)N1CCN(C(=O)c2cccc(Cc3n[nH]c(=O)c4ccccc34)c2)CC1` (stereo unspecified), the PF50 in the experiment on HeLa is given as 29.7. This molecule came in with an IC50 in experiment [1] of 5 nM. For `NC(=O)c1ccccc1OCc1cccc(C(=O)N2CCNCC2)c1` the same measures were 1.3 and 18 nM. Regarding `CC(Oc1ccccc1)C(=O)N1CCN(C(=O)c2cc(COc3ccccc3C(N)=O)ccc2F)CC1` (stereo unspecified), the PF50 with HeLa turned out to be 3.7. Further, 50 nM corresponded to half-maximal inhibition in experiment [1] (IC50). In the same order, the values of `NC(=O)c1ccccc1OCCc1cccc(C(=O)N2CCNCC2)c1` are 1.06 and 970 nM. On to `NC(=O)c1ccccc1OCc1cccc(C(=O)N2CCN(C(=O)C3CCCC3)CC2)c1`, for which the PF50 in the experiment with HeLa is 1.1. Also, inhibition in experiment [1] was half-maximal at 188 nM (IC50). In the case of `NC(=O)c1ccccc1OCCc1cccc(C(=O)N2CCN(C(=O)C3CCCC3)CC2)c1`, the IC50 in experiment [1] amounted to 200 nM.

Turning to `O=C(c1cccc(Cc2n[nH]c(=O)c3ccccc23)c1)N1CCN(C(=O)C2CCCC2)CC1`, in the experiment with HeLa, the PF50 was determined as 4.8. In experiment [1], this molecule yielded an IC50 of 8 nM. In the same order, the values of `NC(=O)c1ccc(F)cc1OCc1ccc(F)c(C(=O)N2CCNCC2)c1` are 1.2 and 250 nM. As to `NC(=O)c1ccccc1OCCc1ccc(F)c(C(=O)N2CCNCC2)c1`, the IC50 in experiment [1] was over 10000 nM. For the molecule `NC(=O)c1cc(F)ccc1OCc1ccc(F)c(C(=O)N2CCN(C(=O)C3CCCC3)CC2)c1`, the PF50 in the experiment with HeLa is listed as 1.5.

On to `CC(Oc1ccccc1)C(=O)N1CCN(C(=O)c2cccc(COc3ccccc3C(N)=O)c2)CC1` (stereo unspecified), for which, in the experiment on HeLa, the PF50 is given as 2. This molecule registered an IC50 in experiment [1] of 36 nM.

The molecule `CC(Oc1ccccc1)C(=O)N1CCN(C(=O)c2cccc(CCOc3ccccc3C(N)=O)c2)CC1` (stereo unspecified) came in with an IC50 in experiment [1] of 200 nM.

Values taken from ChEMBL document CHEMBL1155090, “Novel alkoxybenzamide inhibitors of poly(ADP-ribose) polymerase” (Bioorg Med Chem Lett, 2008).
